We go through eleven compounds from ChEMBL document CHEMBL5226388, “Terpenoids from the Sponge Sarcotragus sp. Collected in the South China Sea” (J Nat Prod, 2023).

SMILES strings stand for the structures.

A word on the IC50: it is the concentration that inhibits the measured activity by half.

The test system of the first series is K562. Nature of the series: Cytotoxicity against human K562 cells assessed as reduction in cell growth by MTT assay. Type of series: functional, cell-based. For orientation: Tetrazolium dyes change colour on reduction, which living cells bring about.
Regarding `COc1cccc2c1C(=O)c1c(O)c3c(c(O)c1C2=O)C[C@@](O)(C(=O)CO)C[C@@H]3O[C@H]1C[C@H](N)[C@H](O)[C@H](C)O1` [DOXORUBICIN], the IC50 is below 1 µM.

As to `C[C@@H]1CC[C@@H]2C(=CC[C@H]3C(C)(C)CCC[C@@]23C)[C@]1(C)C[C@@H](O)C1=CC(=O)OC1`, the IC50 was found to be 12.6 µM.

For the compound `CC(=O)O[C@H]1OC(=O)C=C1/C=C/[C@]1(C)C2=CC[C@H]3C(C)(C)CCC[C@]3(C)[C@H]2CC[C@@H]1C`, the IC50 is 2.91 µM.

`CC1=CCC[C@@H](C)[C@@]1(C)CC/C(C)=C/CCC1=CC(=O)OC1`: the IC50 was above 30 µM.

For `CO[C@H](C[C@]1(C)C2=CC[C@H]3C(C)(C)CCC[C@]3(C)[C@H]2CC[C@@H]1C)C1=CC(=O)O[C@H]1O`, the IC50 was 7.95 µM.

`C=C(C)CCCC1=CCC[C@H](C)[C@]1(C)CCC1=CC(=O)OC1O` (stereo partly drawn): the IC50 amounted to 15.1 µM.

In the case of `CC(=O)O[C@@H]1C[C@@H]2[C@@]3(C)CCCC(C)(C)[C@@H]3CC[C@@]2(C)[C@@H]2C[C@@H](O)C3=C([C@H](O)OC3=O)[C@@]12C`, the IC50 amounted to 7.19 µM.

Consider `C[C@@H]1CC[C@@H]2C(=CC[C@@H]3C(C)(C)CCC[C@@]23C)[C@]1(C)C[C@H](O)C1=CC(=O)OC1`, for which the IC50 was above 30 µM.

With `CC(C)=CCC[C@@]1(C)CCC=C2[C@@H]1CC[C@H](C)[C@]2(C)CCC1=CC(=O)OC1`, the IC50 is above 30 µM.

As for `C[C@H]1CC[C@H]2C(=CC[C@H]3C(C)(C)CCC[C@]23C)[C@@]1(C)/C=C/C1=CC(=O)OC1O` (stereo partly drawn), the IC50 is 11.6 µM.

Turning to `CC(=O)O[C@@H]1OC(=O)C=C1/C=C/[C@]1(C)C2=CC[C@H]3C(C)(C)CCC[C@]3(C)[C@H]2CC[C@@H]1C`, the IC50 is 4.38 µM.

Another series relates to ASPC1. Description: Cytotoxicity against human ASPC1 cells assessed as reduction in cell growth by MTT assay. Type of series: functional, cell-based.
Turning to `COc1cccc2c1C(=O)c1c(O)c3c(c(O)c1C2=O)C[C@@](O)(C(=O)CO)C[C@@H]3O[C@H]1C[C@H](N)[C@H](O)[C@H](C)O1` [DOXORUBICIN], the IC50 is below 1 µM.

Turning to `C[C@@H]1CC[C@@H]2C(=CC[C@H]3C(C)(C)CCC[C@@]23C)[C@]1(C)C[C@@H](O)C1=CC(=O)OC1`, the IC50 was above 30 µM.

On to `CC1=CCC[C@@H](C)[C@@]1(C)CC/C(C)=C/CCC1=CC(=O)OC1`, for which the IC50 is above 30 µM.

`CO[C@H](C[C@]1(C)C2=CC[C@H]3C(C)(C)CCC[C@]3(C)[C@H]2CC[C@@H]1C)C1=CC(=O)O[C@H]1O`: the IC50 was found to be 4.71 µM.

On to `C=C(C)CCCC1=CCC[C@H](C)[C@]1(C)CCC1=CC(=O)OC1O` (stereo partly drawn), for which the IC50 is above 30 µM.

For the compound `CC(=O)O[C@@H]1C[C@@H]2[C@@]3(C)CCCC(C)(C)[C@@H]3CC[C@@]2(C)[C@@H]2C[C@@H](O)C3=C([C@H](O)OC3=O)[C@@]12C`, the IC50 was determined as 17.9 µM.

Consider `C[C@@H]1CC[C@@H]2C(=CC[C@@H]3C(C)(C)CCC[C@@]23C)[C@]1(C)C[C@H](O)C1=CC(=O)OC1`, for which the IC50 is above 30 µM.

Consider `CC(C)=CCC[C@@]1(C)CCC=C2[C@@H]1CC[C@H](C)[C@]2(C)CCC1=CC(=O)OC1`, for which the IC50 was above 30 µM.

Regarding `C[C@H]1CC[C@H]2C(=CC[C@H]3C(C)(C)CCC[C@]23C)[C@@]1(C)/C=C/C1=CC(=O)OC1O` (stereo partly drawn), the IC50 came to 22.4 µM.

The subject of the next series is MDA-MB-231. Description: Cytotoxicity against human MDA-MB-231 cells assessed as reduction in cell growth by MTT assay. Type of series: functional, cell-based.
As for `COc1cccc2c1C(=O)c1c(O)c3c(c(O)c1C2=O)C[C@@](O)(C(=O)CO)C[C@@H]3O[C@H]1C[C@H](N)[C@H](O)[C@H](C)O1` [DOXORUBICIN], the IC50 is below 1 µM.

As to `C[C@@H]1CC[C@@H]2C(=CC[C@H]3C(C)(C)CCC[C@@]23C)[C@]1(C)C[C@@H](O)C1=CC(=O)OC1`, the IC50 was above 30 µM.

Take `CC(=O)O[C@H]1OC(=O)C=C1/C=C/[C@]1(C)C2=CC[C@H]3C(C)(C)CCC[C@]3(C)[C@H]2CC[C@@H]1C`: the IC50 is 29 µM.

`CC1=CCC[C@@H](C)[C@@]1(C)CC/C(C)=C/CCC1=CC(=O)OC1`: the IC50 is above 30 µM.

In the case of `CO[C@H](C[C@]1(C)C2=CC[C@H]3C(C)(C)CCC[C@]3(C)[C@H]2CC[C@@H]1C)C1=CC(=O)O[C@H]1O`, the IC50 came out at 16 µM.

In the case of `C=C(C)CCCC1=CCC[C@H](C)[C@]1(C)CCC1=CC(=O)OC1O` (stereo partly drawn), the IC50 was above 30 µM.

As for `CC(=O)O[C@@H]1C[C@@H]2[C@@]3(C)CCCC(C)(C)[C@@H]3CC[C@@]2(C)[C@@H]2C[C@@H](O)C3=C([C@H](O)OC3=O)[C@@]12C`, the IC50 is above 30 µM.

Consider `C[C@@H]1CC[C@@H]2C(=CC[C@@H]3C(C)(C)CCC[C@@]23C)[C@]1(C)C[C@H](O)C1=CC(=O)OC1`, for which the IC50 is above 30 µM.

For `CC(C)=CCC[C@@]1(C)CCC=C2[C@@H]1CC[C@H](C)[C@]2(C)CCC1=CC(=O)OC1`, the IC50 is above 30 µM.

Consider `C[C@H]1CC[C@H]2C(=CC[C@H]3C(C)(C)CCC[C@]23C)[C@@]1(C)/C=C/C1=CC(=O)OC1O` (stereo partly drawn), for which the IC50 was above 30 µM.

`CC(=O)O[C@@H]1OC(=O)C=C1/C=C/[C@]1(C)C2=CC[C@H]3C(C)(C)CCC[C@]3(C)[C@H]2CC[C@@H]1C`: the IC50 came to 23.2 µM.

Another series has as its system H69AR. Nature of the series: Cytotoxicity against human NCI-H69AR cells assessed as reduction in cell growth by MTT assay. Type of series: functional, cell-based.
On to `COc1cccc2c1C(=O)c1c(O)c3c(c(O)c1C2=O)C[C@@](O)(C(=O)CO)C[C@@H]3O[C@H]1C[C@H](N)[C@H](O)[C@H](C)O1` [DOXORUBICIN], for which the IC50 was below 1 µM.

For the compound `C[C@@H]1CC[C@@H]2C(=CC[C@H]3C(C)(C)CCC[C@@]23C)[C@]1(C)C[C@@H](O)C1=CC(=O)OC1`, the IC50 was above 30 µM.

`CC(=O)O[C@H]1OC(=O)C=C1/C=C/[C@]1(C)C2=CC[C@H]3C(C)(C)CCC[C@]3(C)[C@H]2CC[C@@H]1C`: the IC50 stood at 14.9 µM.

`CC1=CCC[C@@H](C)[C@@]1(C)CC/C(C)=C/CCC1=CC(=O)OC1`: the IC50 is above 30 µM.

As for `CO[C@H](C[C@]1(C)C2=CC[C@H]3C(C)(C)CCC[C@]3(C)[C@H]2CC[C@@H]1C)C1=CC(=O)O[C@H]1O`, the IC50 turned out to be 5.67 µM.

Turning to `C=C(C)CCCC1=CCC[C@H](C)[C@]1(C)CCC1=CC(=O)OC1O` (stereo partly drawn), the IC50 stood at 21.1 µM.

`CC(=O)O[C@@H]1C[C@@H]2[C@@]3(C)CCCC(C)(C)[C@@H]3CC[C@@]2(C)[C@@H]2C[C@@H](O)C3=C([C@H](O)OC3=O)[C@@]12C`: the IC50 stood at 27.5 µM.

For the compound `C[C@@H]1CC[C@@H]2C(=CC[C@@H]3C(C)(C)CCC[C@@]23C)[C@]1(C)C[C@H](O)C1=CC(=O)OC1`, the IC50 was above 30 µM.

Turning to `CC(C)=CCC[C@@]1(C)CCC=C2[C@@H]1CC[C@H](C)[C@]2(C)CCC1=CC(=O)OC1`, the IC50 was above 30 µM.

On to `C[C@H]1CC[C@H]2C(=CC[C@H]3C(C)(C)CCC[C@]23C)[C@@]1(C)/C=C/C1=CC(=O)OC1O` (stereo partly drawn), for which the IC50 stood at 25.7 µM.

As to `CC(=O)O[C@@H]1OC(=O)C=C1/C=C/[C@]1(C)C2=CC[C@H]3C(C)(C)CCC[C@]3(C)[C@H]2CC[C@@H]1C`, the IC50 came to 16.3 µM.

Test system in the next series: not listed separately
Nature of the series: Cytotoxicity against human L02 cells assessed as reduction in cell growth by MTT assay. Type of series: toxicity, cell-based.
In the case of `COc1cccc2c1C(=O)c1c(O)c3c(c(O)c1C2=O)C[C@@](O)(C(=O)CO)C[C@@H]3O[C@H]1C[C@H](N)[C@H](O)[C@H](C)O1` [DOXORUBICIN], the IC50 was below 1 µM.

Consider `C[C@@H]1CC[C@@H]2C(=CC[C@H]3C(C)(C)CCC[C@@]23C)[C@]1(C)C[C@@H](O)C1=CC(=O)OC1`, for which the IC50 is 11.6 µM.

On to `CC(=O)O[C@H]1OC(=O)C=C1/C=C/[C@]1(C)C2=CC[C@H]3C(C)(C)CCC[C@]3(C)[C@H]2CC[C@@H]1C`, for which the IC50 came to 6.8 µM.

In the case of `CC1=CCC[C@@H](C)[C@@]1(C)CC/C(C)=C/CCC1=CC(=O)OC1`, the IC50 is above 30 µM.

For `CO[C@H](C[C@]1(C)C2=CC[C@H]3C(C)(C)CCC[C@]3(C)[C@H]2CC[C@@H]1C)C1=CC(=O)O[C@H]1O`, the IC50 was determined as 4.62 µM.

Regarding `C=C(C)CCCC1=CCC[C@H](C)[C@]1(C)CCC1=CC(=O)OC1O` (stereo partly drawn), the IC50 is 13.5 µM.

Consider `CC(=O)O[C@@H]1C[C@@H]2[C@@]3(C)CCCC(C)(C)[C@@H]3CC[C@@]2(C)[C@@H]2C[C@@H](O)C3=C([C@H](O)OC3=O)[C@@]12C`, for which the IC50 was found to be 24.1 µM.

For the compound `C[C@@H]1CC[C@@H]2C(=CC[C@@H]3C(C)(C)CCC[C@@]23C)[C@]1(C)C[C@H](O)C1=CC(=O)OC1`, the IC50 was above 30 µM.

Consider `CC(C)=CCC[C@@]1(C)CCC=C2[C@@H]1CC[C@H](C)[C@]2(C)CCC1=CC(=O)OC1`, for which the IC50 is above 30 µM.

Consider `C[C@H]1CC[C@H]2C(=CC[C@H]3C(C)(C)CCC[C@]23C)[C@@]1(C)/C=C/C1=CC(=O)OC1O` (stereo partly drawn), for which the IC50 was 13.5 µM.

On to `CC(=O)O[C@@H]1OC(=O)C=C1/C=C/[C@]1(C)C2=CC[C@H]3C(C)(C)CCC[C@]3(C)[C@H]2CC[C@@H]1C`, for which the IC50 was 7.21 µM.
